Test results reported in patent publication US20100226987A1, “TARGETING CONJUGATES COMPRISING ACTIVE AGENTS ENCAPSULATED IN CYCLODEXTRIN-CONTAINING POLYMERS” (CAPSUTECH LTD., priority 2007, published 2010).

Tested on: human nasopharyngeal KB cancer cells, which overexpress the folate receptor (FR)
Assay: In vitro binding of RhB-encapsulating conjugates to KB cells (fluorescence counting and fluorescence microscopy)
Format: cell-based
Conditions: control = mixture of non-encapsulated RhB, free CD derivative, PEG and FA, FIGS. 1A-1B
Protocol: Cell culture. KB cells (ATCC CCL-17) were obtained from ATCC and grown on Minimum essential medium (Eagle) with 2 mM L-glutamine; 0.1 mM non-essential amino acids; 0.2 Earle's BSS adjusted to contain 1.5 g/l sodium bicarbonate; and 1.0 mM sodium pyruvate, 90%; heat inactivated fetal bovine serum, 10%. Cells were subcultured according to the ATCC recommended protocol. After 3 cycles of splitting at 85% confluence, 2,000 to 50,000 cells were seeded on transparent 96 well plate. Following 24 hours it was decided that optimal conditions would be seeding 35,000 cells per well for assay to be carried out in the following day. […]
KB cancer cells were cultured as described in Materials and Methods, and seeded on both Black and transparent 96 well plates for fluorescence counting and fluorescent microscopy. […] The medium was then washed 3 times with PBS 1 X, and fluorescence associated with the cells in both plates was counted using Analyst HT (Ex 525 nm, Dc 560 nm, Em 595 nm). The net fluorescence was calculated by subtracting the averaged background fluorescence form the fluorescence of the conjugate-treated cells. The transparent plate was further analyzed by fluorescence microscopy.

For Di-CD-Glu-PEG3350-FA-RhB [Conjugate 55], the “fluorescence of treated cells higher relative to control” value was 780%.
